Test results as given in US11279687B2, “Compounds and compositions for the inhibition of NAMPT” (Valo Health, Inc., priority 2010, dated 2022).
Read-outs that look alike come from different tables or passages of the source.

Key:
NAMPT = NAMPT (Homo sapiens (Human), UniProt P43490); assay: NAMPT biochemical inhibition assay (NMN quantified by mass spectrometry); conditions: NAMPT biochemical inhibition; read-out: Biochem IC50
A2780 cells = assay: In-vitro cell proliferation assay (SRB), A2780 cells; assay type: cell-based; conditions: A2780 cells, 72 hours, SRB, read-out: A2780 IC50;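 note: viable cell number read as SRB absorbance, background from media-only wells subtracted, IC50 interpolated from percent inhibition at two bracketing compound concentrations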

Sequence of NAMPT (P43490 whole entry): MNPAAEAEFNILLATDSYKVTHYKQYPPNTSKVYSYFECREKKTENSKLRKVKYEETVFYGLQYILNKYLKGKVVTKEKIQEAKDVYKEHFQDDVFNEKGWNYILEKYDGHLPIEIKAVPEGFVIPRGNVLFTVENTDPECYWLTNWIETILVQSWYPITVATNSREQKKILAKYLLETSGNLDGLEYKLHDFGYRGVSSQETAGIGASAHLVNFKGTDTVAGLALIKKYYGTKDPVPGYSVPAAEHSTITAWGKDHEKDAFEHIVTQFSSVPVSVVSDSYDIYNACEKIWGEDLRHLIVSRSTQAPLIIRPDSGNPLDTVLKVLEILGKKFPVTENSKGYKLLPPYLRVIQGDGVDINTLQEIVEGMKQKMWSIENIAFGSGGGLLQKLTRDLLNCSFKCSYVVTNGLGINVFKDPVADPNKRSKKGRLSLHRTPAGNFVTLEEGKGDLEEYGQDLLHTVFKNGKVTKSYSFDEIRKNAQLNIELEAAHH

O=C(NCc1cccnc1)Nc1ccc(S(=O)(=O)N2CCCC[C@@H]2Cc2ccccc2)cc1 [1-{4-[(2R)-2-benzylpiperidine-1-sulfonyl]phenyl}-3-(pyridin-3-ylmethyl)urea]
IC50 (NAMPT): 4 nM | IC50 (A2780 cells; Homo sapiens, A2780, 72 h): 24 nM

O=C(NCc1cccnc1)Nc1ccc(S(=O)(=O)Nc2cccc(C(=O)c3ccccc3)c2)cc1 [1-{4-[(3-benzoylphenyl)sulfamoyl]phenyl}-3-(pyridin-3-ylmethyl)urea]
IC50 (NAMPT): 4.4 nM | IC50 (A2780 cells; Homo sapiens, A2780, 72 h): 1000 to 10000 nM

N#Cc1cccc(S(=O)(=O)c2ccc(NC(=O)NCc3cccnc3)cc2)c1 [1-{4-[(3-cyanobenzene)sulfonyl]phenyl}-3-(pyridin-3-ylmethyl)urea]
IC50 (NAMPT): 8 nM | IC50 (A2780 cells; Homo sapiens, A2780, 72 h): 100 to 1000 nM

O=C(NCc1cccnc1)Nc1ccc(S(=O)(=O)c2cccc(-c3ccccc3)c2)cc1 [1-{4-[(3-phenylbenzene)sulfonyl]phenyl}-3-(pyridin-3-ylmethyl)urea]
IC50 (NAMPT): 6.8 nM | IC50 (A2780 cells; Homo sapiens, A2780, 72 h): 100 to 1000 nM

N#Cc1ccc(S(=O)(=O)c2ccc(NC(=O)NCc3cccnc3)cc2)cc1 [1-{4-[(4-cyanobenzene)sulfonyl]phenyl}-3-(pyridin-3-ylmethyl)urea]
IC50 (NAMPT): 7.6 nM | IC50 (A2780 cells; Homo sapiens, A2780, 72 h): 100 to 1000 nM

O=C(NCc1cccnc1)Nc1ccc(S(=O)(=O)c2ccc(-c3ccccc3)cc2)cc1 [1-{4-[(4-phenylbenzene)sulfonyl]phenyl}-3-(pyridin-3-ylmethyl)urea]
IC50 (NAMPT): 5.8 nM | IC50 (A2780 cells; Homo sapiens, A2780, 72 h): 100 to 1000 nM

O=C(NCc1cccnc1)Nc1ccc(S(=O)(=O)NCC2CCCCC2)cc1 [1-{4-[(cyclohexylmethyl)sulfamoyl]phenyl}-3-(pyridin-3-ylmethyl)urea]
IC50 (NAMPT): 4 nM | IC50 (A2780 cells; Homo sapiens, A2780, 72 h): 181 nM

O=C(NCc1cccnc1)Nc1ccc(S(=O)(=O)NCc2ccccn2)cc1 [1-{4-[(pyridin-2-ylmethyl)sulfamoyl]phenyl}-3-(pyridin-3-ylmethyl)urea]
IC50 (NAMPT): 8.4 nM | IC50 (A2780 cells; Homo sapiens, A2780, 72 h): 1000 to 10000 nM

O=C(NCc1ccc(S(=O)(=O)c2ccccc2)cc1)Nc1ccc2ncccc2c1 [1-{[4-(benzenesulfonyl)phenyl]methyl}-3-(quinolin-6-yl)urea]
IC50 (NAMPT): 2260 nM | IC50 (A2780 cells; Homo sapiens, A2780, 72 h): > 30000 nM

CC(C)NC(=O)c1cc(S(=O)(=O)c2ccc(NC(=O)NCc3cccnc3)cc2)ccc1F [2-fluoro-N-(propan-2-yl)-5-[(4-{[(pyridin-3-ylmethyl)carbamoyl]amino}benzene)sulfonyl]benzamide]
IC50 (NAMPT): 20.9 nM | IC50 (A2780 cells; Homo sapiens, A2780, 72 h): 100 to 1000 nM

CC(C)C(=O)NC1CCN(S(=O)(=O)c2ccc(NC(=O)NCc3cccnc3)cc2)CC1 [2-methyl-N-{1-[(4-{[(pyridin-3-ylmethyl)carbamoyl]amino}benzene)sulfonyl]piperidin-4-yl}propanamide]
IC50 (NAMPT): 5 nM | IC50 (A2780 cells): 123 nM

CC(C)C(=O)Nc1cccc(S(=O)(=O)c2ccc(NC(=O)NCc3cccnc3)cc2)c1 [2-methyl-N-{3-[(4-{[(pyridin-3-ylmethyl)carbamoyl]amino}benzene)sulfonyl]phenylJpropanamide]
IC50 (NAMPT): 1.2 nM | IC50 (A2780 cells): 10.1 nM

COc1cccc(C2(N3CCN(S(=O)(=O)c4ccc(NC(=O)NCc5cccnc5)cc4)CC3)CCC(C)CC2)c1 (stereo not shown) [3-(4-{4-[1-(3-methoxyphenyl)-4-methylcyclohexyl]piperazine-1-sulfonyl}phenyl)-1-(pyridin-3-ylmethyl)urea]
IC50 (NAMPT): 4 nM | IC50 (A2780 cells; Homo sapiens, A2780, 72 h): 5 nM

O=C(NCc1cccnc1)Nc1ccc(S(=O)(=O)N2CCN(C(=O)Cc3ccc(Cl)c(Cl)c3)CC2)cc1 [3-(4-{4-[2-(3,4-dichlorophenyl)acetyl]piperazine-1-sulfonyl[phenyl)-1-(pyridin-3-ylmethyl)urea]
IC50 (NAMPT): 3.7 nM | IC50 (A2780 cells): 1000 to 10000 nM

CCN(CC)CCN1CCN(S(=O)(=O)c2ccc(NC(=O)NCc3cccnc3)cc2)CC1 [3-(4-{4-[2-(diethylamino)ethyl]piperazine-1-sulfonyl}phenyl)-1-(pyridin-3-ylmethyl)urea]
IC50 (NAMPT): 4 nM | IC50 (A2780 cells; Homo sapiens, A2780, 72 h): 23 nM

O=C(NCc1cccnc1)Nc1ccc(S(=O)(=O)N2CCN(c3ncc(C(F)(F)F)cc3Cl)CC2)cc1 [3-(4-{4-[3-chloro-5-(trifluoromethyl)pyridin-2-yl]piperazine-1-sulfonyl}phenyl)-1-(pyridin-3-ylmethyl)urea]
IC50 (NAMPT): 5 nM | IC50 (A2780 cells; Homo sapiens, A2780, 72 h): 128 nM

O=C(NCc1cccnc1)Nc1ccc(S(=O)(=O)N2CCC(C(=O)c3ccc(F)cc3)CC2)cc1 [3-(4-{4-[(4-fluorophenyl)carbonyl]piperidine-1-sulfonyl}phenyl)-1-(pyridin-3-ylmethyl)urea]
IC50 (NAMPT): 10 nM | IC50 (A2780 cells; Homo sapiens, A2780, 72 h): 206 nM

O=C(NCc1cccnc1)Nc1ccc(S(=O)(=O)N2CCC(C(=O)N3CCOCC3)CC2)cc1 [3-(4-{4-[(morpholin-4-yl)carbonyl]piperidine-1-sulfonyl}phenyl)-1-(pyridin-3-ylmethyl)urea]
IC50 (NAMPT): 8 nM | IC50 (A2780 cells; Homo sapiens, A2780, 72 h): 40 nM

O=C(NCc1cccnc1)Nc1ccc(S(=O)(=O)N2CCN(C(c3ccc(F)cc3)c3ccc(F)cc3)CC2)cc1 [3-(4-{4-[bis(4-fluorophenyl)methyl]piperazine-1-sulfonyl}phenyl)-1-(pyridin-3-ylmethyl)urea]
IC50 (NAMPT): 5 nM | IC50 (A2780 cells; Homo sapiens, A2780, 72 h): 7 nM

CN1CCCC2(CCCN(S(=O)(=O)c3ccc(NC(=O)NCc4cccnc4)cc3)C2)C1 (stereo not shown) [3-(4-{8-methyl-2,8-diazaspiro[5.5]undecane-2-sulfonyl}phenyl)-1-(pyridin-3-ylmethyl)urea]
IC50 (NAMPT): 1 nM | IC50 (A2780 cells; Homo sapiens, A2780, 72 h): 1 nM

O=C(NCc1cccnc1)Nc1ccc(S(=O)(=O)Nc2cccnc2Oc2ccc(F)cc2)cc1 [3-(4-{[2-(4-fluorophenoxy)pyridin-3-yl]sulfamoyl}phenyl)-1-(pyridin-3-ylmethyl)urea]
IC50 (NAMPT): 11 nM | IC50 (A2780 cells; Homo sapiens, A2780, 72 h): 149 nM

O=C(NCc1cccnc1)Nc1ccc(S(=O)(=O)Nc2ccccc2OC(F)F)cc1 [3-(4-{[2-(difluoromethoxy)phenyl]sulfamoyl}phenyl)-1-(pyridin-3-ylmethyl)urea]
IC50 (NAMPT): 0.6 nM | IC50 (A2780 cells; Homo sapiens, A2780, 72 h): 31 nM

COCc1ccccc1S(=O)(=O)c1ccc(NC(=O)NCc2cccnc2)cc1 [3-(4-{[2-(methoxymethyl)benzene]sulfonyl}phenyl)-1-(pyridin-3-ylmethyl)urea]
IC50 (NAMPT): 6 nM | IC50 (A2780 cells; Homo sapiens, A2780, 72 h): 39 nM

O=C(NCc1cccnc1)Nc1ccc(S(=O)(=O)Nc2cc(C(F)(F)F)ccc2N2CCOCC2)cc1 [3-(4-{[2-(morpholin-4-yl)-5-(trifluoromethyl)phenyl]sulfamoyl}phenyl)-1-(pyridin-3-ylmethyl)urea]
IC50 (NAMPT): 8 nM | IC50 (A2780 cells; Homo sapiens, A2780, 72 h): 7 nM

O=C(NCc1cccnc1)Nc1ccc(S(=O)(=O)Nc2cc(C(F)(F)F)ccc2N2CCCCC2)cc1 [3-(4-{[2-(piperidin-1-yl)-5-(trifluoromethyl)phenyl]sulfamoyl}phenyl)-1-(pyridin-3-ylmethyl)urea]
IC50 (NAMPT): 5 nM | IC50 (A2780 cells; Homo sapiens, A2780, 72 h): 22 nM

CC(C)Oc1ccccc1NS(=O)(=O)c1ccc(NC(=O)NCc2cccnc2)cc1 [3-(4-{[2-(propan-2-yloxy)phenyl]sulfamoyl}phenyl)-1-(pyridin] [3-(4-{[2-(propan-2-yloxy)phenyl]sulfamoyl}phenyl)-1-(pyridin-3-ylmethyl)urea]
IC50 (NAMPT): 2 nM | IC50 (A2780 cells): 15 nM

O=C(NCc1cccnc1)Nc1ccc(S(=O)(=O)c2cc(OC(F)(F)F)ccc2Cl)cc1 [3-(4-{[2-chloro-5-(trifluoromethoxy)benzene]sulfonyl}phenyl)-1-(pyridin-3-ylmethyl)urea]
IC50 (NAMPT): 6.3 nM | IC50 (A2780 cells; Homo sapiens, A2780, 72 h): 100 to 1000 nM

O=C(NCc1cccnc1)Nc1ccc(S(=O)(=O)c2cc(C(F)(F)F)ccc2Cl)cc1 [3-(4-{[2-chloro-5-(trifluoromethyl)benzene]sulfonyl}phenyl)-1-(pyridin-3-ylmethyl)urea]
IC50 (NAMPT): 5 nM | IC50 (A2780 cells; Homo sapiens, A2780, 72 h): 339 nM

O=C(NCc1cccnc1)Nc1ccc(S(=O)(=O)c2ccc(-n3cccn3)cc2F)cc1 [3-(4-{[2-fluoro-4-(1H-pyrazol-1-yl)benzene]sulfonyl}phenyl)-1-(pyridin-3-ylmethyl)urea]
IC50 (NAMPT): 1 nM | IC50 (A2780 cells; Homo sapiens, A2780, 72 h): 14 nM

COc1cc(-n2cccn2)ccc1S(=O)(=O)c1ccc(NC(=O)NCc2cccnc2)cc1 [3-(4-{[2-methoxy-4-(1H-pyrazol-1-yl)benzene]sulfonyl}phenyl)-1-(pyridin-3-ylmethyl)urea]
IC50 (NAMPT): 2 nM | IC50 (A2780 cells; Homo sapiens, A2780, 72 h): 3 nM

COc1ccc(C(C)C)cc1S(=O)(=O)c1ccc(NC(=O)NCc2cccnc2)cc1 [3-(4-{[2-methoxy-5-(propan-2-yl)benzene]sulfonyl}phenyl)-1-(pyridin-3-ylmethyl)urea]
IC50 (NAMPT): 3 nM | IC50 (A2780 cells; Homo sapiens, A2780, 72 h): 31 nM

COc1ccc(C(F)(F)F)cc1S(=O)(=O)c1ccc(NC(=O)NCc2cccnc2)cc1 [3-(4-{[2-methoxy-5-(trifluoromethyl)benzene]sulfonyl}phenyl)-1-(pyridin-3-ylmethyl)urea]
IC50 (NAMPT): 1.4 nM | IC50 (A2780 cells; Homo sapiens, A2780, 72 h): 3.3 nM

Cc1cc(-n2cccn2)ccc1S(=O)(=O)c1ccc(NC(=O)NCc2cccnc2)cc1 [3-(4-{[2-methyl-4-(1H-pyrazol-1-yl)benzene]sulfonyl}phenyl)-1-(pyridin-3-ylmethyl)urea]
IC50 (NAMPT): 2 nM | IC50 (A2780 cells; Homo sapiens, A2780, 72 h): 21 nM

Cc1cc(C(F)(F)F)ccc1S(=O)(=O)c1ccc(NC(=O)NCc2cccnc2)cc1 [3-(4-{[2-methyl-4-(trifluoromethyl)benzene]sulfonyl}phenyl)-1-(pyridin-3-ylmethyl)urea]
IC50 (NAMPT): 11.8 nM | IC50 (A2780 cells; Homo sapiens, A2780, 72 h): 100 to 1000 nM

CC(C)COc1cccc(S(=O)(=O)c2ccc(NC(=O)NCc3cccnc3)cc2)c1 [3-(4-{[3-(2-methylpropoxy)benzene]sulfonyl]phenyl)-1-(pyridin-3-ylmethyl)urea]
IC50 (NAMPT): 3.3 nM | IC50 (A2780 cells; Homo sapiens, A2780, 72 h): 100 to 1000 nM

Cc1cc(C)n(-c2cccc(S(=O)(=O)c3ccc(NC(=O)NCc4cccnc4)cc3)c2)n1 [3-(4-{[3-(3,5-dimethyl-1H-pyrazol-1-yl)benzene]sulfonyl}phenyl)-1-(pyridin-3-ylmethyl)urea]
IC50 (NAMPT): 1.6 nM | IC50 (A2780 cells; Homo sapiens, A2780, 72 h): 15.9 nM

Cc1nnc(-c2cccc(S(=O)(=O)c3ccc(NC(=O)NCc4cccnc4)cc3)c2)o1 [3-(4-{[3-(5-methyl-1,3,4-oxadiazol-2-yl)benzene]sulfonyl]phenyl)-1-(pyridin-3-ylmethyl)urea]
IC50 (NAMPT): 7.3 nM | IC50 (A2780 cells): 100 to 1000 nM

CN(C)S(=O)(=O)c1cccc(S(=O)(=O)c2ccc(NC(=O)NCc3cccnc3)cc2)c1 [3-(4-{[3-(dimethylsulfamoyl)benzene]sulfonyl]phenyl)-1-(pyridin-3-ylmethyl)urea]
IC50 (NAMPT): 3.3 nM | IC50 (A2780 cells; Homo sapiens, A2780, 72 h): 79.3 nM
